According to the supplement of paper PMC11208160:

experiment: recombinant barcode read abundance after kanamycin selection (control-corrected) (log10(CPM+1)); higher = more efficient recombination; sequences stand for … in AGTGCAGAGAAAATCGGCCAGTTTTCTCTGCCTGCAGTCCGCATGCCGT…AGATTTATGCAGCGGACTGCCTTTCTCCCAAAGTGATAAACCGGACAGTATCATGGACCGGTTTTCCCGGTAATCCGTATTTGCAAGGTTGGTTTCACT; site = the 11-nt target
In short: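 Reported as log10(CPM+1), each value stands for recombination efficiency. That efficiency is the averaged, control-corrected counts per million of barcodes found at recombinant junctions. Cells from a pooled E. coli library pairing targets with IS621 bridge RNA target-binding loops were plated twice on chloramphenicol/ampicillin LB agar (control) and twice on chloramphenicol/ampicillin/kanamycin with 0.1 mM IPTG.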
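Also: IS621 recombinase and bridge RNA in Escherichia coli cells.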

Going from “TCGGAGTCTTGGGTTCTAACCTGTTGCTG (site TCGGAGTCTCG)” to “TCGGATACTTGGGTTCTAACCTGTTGCTT (site TCGGATACTAA)”, the “recombinant barcode read abundance (log10)” value rises from 0.446 to 0.659.

Compared with “TCGGATACTTGGGTTCTAACCTGTTGCTT (site TCGGATACTAC)”, “TCGGATACTTGGGTTCTAACCTGTTGCTT (site TCGGATACTAG)” is higher in “recombinant barcode read abundance (log10)” value: 0.249 for the first, 0.759 for the second.

Going from “TCGGATACTTGGGTTCTAACCTGTTGCTT (site TCGGATACTAT)” to “TCGTCACCTTGGGTTCTAACCTGTTGCAT (site CTAGTGGCTCG)”, the “recombinant barcode read abundance (log10)” value falls from 0.323 to 0.

“TCGTCACCTTGGGTTCTAACCTGTTGCAT (site TCGTCACCTAT)” and “TCGTCATCTTGGGTTCTAACCTGTTGCCT (site TCGTCATCTAG)” are within 0.2 log units of each other in “recombinant barcode read abundance (log10)” value: 0.0694 for the first, 0.21 for the second.

First: TCGTCATCTTGGGTTCTAACCTGTTGCCT (site TCGTCCTCTAG)
Second: TCGTGCCCTTGGGTTCTAACCTGTTGCTG (site TCGTGCCCTAA)
The “recombinant barcode read abundance (log10)” value of the first is higher: 0.276 for the first, 0.0676 for the second.

“TCGTGCCCTTGGGTTCTAACCTGTTGCTG (site TCGTGCCCTCA)” and “TCGTTCCCTTGGGTTCTAACCTGTTGCTT (site TCGTTCCCTAA)” are within 0.2 log units of each other in “recombinant barcode read abundance (log10)” value: 0.156 for the first, 0.105 for the second.

First: TCGTTCCCTTGGGTTCTAACCTGTTGCTT (site TCGTTGCCTAG)
Second: TCGTTGCCTTGGGTTCTAACCTGTTGCCT (site TCGTTCCCTAA)
The “recombinant barcode read abundance (log10)” value of the first is lower: 0.0502 for the first, 0.695 for the second.

First: TCGTTGCCTTGGGTTCTAACCTGTTGCCT (site TCGTTGCCTAG)
Second: TCTAACCCTTGGGTTCTAACCTGTTGCGG (site TCAAACCCTCC)
The “recombinant barcode read abundance (log10)” value of the first is higher: 0.533 for the first, 0.332 for the second.

“TCTAACCCTTGGGTTCTAACCTGTTGCGG (site TCCAACCCTCC)” and “TCTAACCCTTGGGTTCTAACCTGTTGCGG (site TCGAACCCTCC)” are within 0.2 log units of each other in “recombinant barcode read abundance (log10)” value: 0.0105 for the first, 0.091 for the second.

Compared with “TCTAACCCTTGGGTTCTAACCTGTTGCGG (site TCTAACCCTCC)”, “TCTAAGTCTTGGGTTCTAACCTGTTGCCG (site TCTAAGTCTAG)” is lower in “recombinant barcode read abundance (log10)” value: 1.09 for the first, 0.0709 for the second.

“TCTAAGTCTTGGGTTCTAACCTGTTGCCG (site TCTAAGTCTCG)” and “TCTAAGTCTTGGGTTCTAACCTGTTGCCG (site TCTAAGTCTGG)” are within 0.2 log units of each other in “recombinant barcode read abundance (log10)” value: 0.137 for the first, 0.0885 for the second.

Compared with “TCTAAGTCTTGGGTTCTAACCTGTTGCCG (site TCTAAGTCTTG)”, “TCTACTTCTTGGGTTCTAACCTGTTGCCT (site TCTACATCTAG)” is lower in “recombinant barcode read abundance (log10)” value: 0.483 for the first, 0.0183 for the second.

“TCTACTTCTTGGGTTCTAACCTGTTGCCT (site TCTACCTCTAG)” and “TCTACTTCTTGGGTTCTAACCTGTTGCCT (site TCTACGTCTAG)” are within 0.2 log units of each other in “recombinant barcode read abundance (log10)” value: 0.123 for the first, 0.0937 for the second.

“TCTACTTCTTGGGTTCTAACCTGTTGCCT (site TCTACTTCTAG)” and “TCTAGACCTTGGGTTCTAACCTGTTGCCT (site TCTAGAACTAG)” are within 0.2 log units of each other in “recombinant barcode read abundance (log10)” value: 0.136 for the first, 0 for the second.

“TCTAGACCTTGGGTTCTAACCTGTTGCCT (site TCTAGACCTAG)” and “TCTAGACCTTGGGTTCTAACCTGTTGCCT (site TCTAGAGCTAG)” are within 0.2 log units of each other in “recombinant barcode read abundance (log10)” value: 0.0778 for the first, 0.139 for the second.

“TCTAGACCTTGGGTTCTAACCTGTTGCCT (site TCTAGATCTAG)” and “TCTAGAGCTTGGGTTCTAACCTGTTGCGG (site CCTCGAGCTCC)” are within 0.2 log units of each other in “recombinant barcode read abundance (log10)” value: 0.03 for the first, 0.176 for the second.

Going from “TCTAGAGCTTGGGTTCTAACCTGTTGCGG (site TCTAGAGCTCC)” to “TCTAGTCCTTGGGTTCTAACCTGTTGCCT (site TCTAGACCTTG)”, the “recombinant barcode read abundance (log10)” value falls from 1.61 to 0.418.

“TCTAGTCCTTGGGTTCTAACCTGTTGCCT (site TCTAGTCCTAG)” and “TCTCAACCTTGGGTTCTAACCTGTTGCCT (site TCTAAACCTAG)” are within 0.2 log units of each other in “recombinant barcode read abundance (log10)” value: 0.036 for the first, 0.0445 for the second.

Compared with “TCTCAACCTTGGGTTCTAACCTGTTGCCT (site TCTCAACCTAG)”, “TCTCAGGCTTGGGTTCTAACCTGTTGCCG (site TCACAGGCTCG)” is lower in “recombinant barcode read abundance (log10)” value: 1.33 for the first, 0.203 for the second.

“TCTCAGGCTTGGGTTCTAACCTGTTGCCG (site TCTCAGGCTCG)” and “TCTCAGTCTTGGGTTCTAACCTGTTGCGG (site TCCCAGTCTCA)” are within 0.2 log units of each other in “recombinant barcode read abundance (log10)” value: 0.0148 for the first, 0.0631 for the second.

Going from “TCTCAGTCTTGGGTTCTAACCTGTTGCGG (site TCTCAGTCTCC)” to “TCTCCAGCTTGGGTTCTAACCTGTTGCCT (site TCGCAAGCTAG)”, the “recombinant barcode read abundance (log10)” value falls from 1.14 to 0.0305.

Compared with “TCTCCAGCTTGGGTTCTAACCTGTTGCCT (site TCTCCAGCTAG)”, “TCTCGAGCTTGGGTTCTAACCTGTTGCGA (site CTGGCGCCTAT)” is lower in “recombinant barcode read abundance (log10)” value: 1.13 for the first, 0.839 for the second.

Going from “TCTCGAGCTTGGGTTCTAACCTGTTGCGA (site TCTCGAGCTTC)” to “TCTCGGACTTGGGTTCTAACCTGTTGCCT (site TCACGGACTAG)”, the “recombinant barcode read abundance (log10)” value falls from 0.78 to 0.147.

“TCTCGGACTTGGGTTCTAACCTGTTGCCT (site TCCCGGACTAG)” and “TCTCGGACTTGGGTTCTAACCTGTTGCCT (site TCGCGGACTAG)” are within 0.2 log units of each other in “recombinant barcode read abundance (log10)” value: 0.0144 for the first, 0.0137 for the second.

“TCTCGGACTTGGGTTCTAACCTGTTGCCT (site TCTCGGACTAG)” and “TCTCTCGCTTGGGTTCTAACCTGTTGCCT (site CAGAATCCTCC)” are within 0.2 log units of each other in “recombinant barcode read abundance (log10)” value: 0.249 for the first, 0.108 for the second.

First: TCTCTCGCTTGGGTTCTAACCTGTTGCCT (site TCTCTCGCTAG)
Second: TCTGATCCTTGGGTTCTAACCTGTTGCCT (site TCTCACCCTAG)
The “recombinant barcode read abundance (log10)” value of the first is higher: 0.47 for the first, 0.0615 for the second.

Compared with “TCTGATCCTTGGGTTCTAACCTGTTGCCT (site TCTGATCCTAG)”, “TCTGGGCCTTGGGTTCTAACCTGTTGCTA (site TCTGGGCCTAA)” is lower in “recombinant barcode read abundance (log10)” value: 0.7 for the first, 0.42 for the second.

Compared with “TCTGGGCCTTGGGTTCTAACCTGTTGCTA (site TCTGGGCCTTA)”, “TCTTAGACTTGGGTTCTAACCTGTTGCGA (site CAAACCTCTGT)” is lower in “recombinant barcode read abundance (log10)” value: 0.364 for the first, 0.0411 for the second.

First: TCTTAGACTTGGGTTCTAACCTGTTGCGA (site TCTTAGACTTC)
Second: TCTTAGACTTGGGTTCTAACCTGTTGCGG (site ACTTAGACTCC)
The “recombinant barcode read abundance (log10)” value of the first is higher: 0.638 for the first, 0.172 for the second.

Compared with “TCTTAGACTTGGGTTCTAACCTGTTGCGG (site TCTTAGACTCC)”, “TCTTATTCTTGGGTTCTAACCTGTTGCGT (site TCTAATTCTAC)” is lower in “recombinant barcode read abundance (log10)” value: 1.47 for the first, 0.0715 for the second.

“TCTTATTCTTGGGTTCTAACCTGTTGCGT (site TCTCATTCTAC)” and “TCTTATTCTTGGGTTCTAACCTGTTGCGT (site TCTGATTCTAC)” are within 0.2 log units of each other in “recombinant barcode read abundance (log10)” value: 0.0847 for the first, 0.0368 for the second.

First: TCTTATTCTTGGGTTCTAACCTGTTGCGT (site TCTTATTCTAC)
Second: TCTTGGACTTGGGTTCTAACCTGTTGCAC (site AGGGACCCTAG)
The “recombinant barcode read abundance (log10)” value of the first is higher: 0.258 for the first, 0.0242 for the second.

“TCTTGGACTTGGGTTCTAACCTGTTGCAC (site TCTTGGACTGT)” and “TCTTGGACTTGGGTTCTAACCTGTTGCTC (site TCTTGGACTAA)” are within 0.2 log units of each other in “recombinant barcode read abundance (log10)” value: 0.104 for the first, 0.0489 for the second.
